By Kd is commonly meant the concentration at which binding is half-saturated. As a reminder, the IC50 is the concentration at which inhibition is half-maximal.

The values that follow come from patent US6855705B1, “11-O-methylgeldanamycin compounds” (Kosan Biosciences, Inc., priority 2003, dated 2005).

One experiment deals with Hsp90 (Homo sapiens, UniProt P07900). Briefly: Hsp90 binding (filter binding assay).
The subject of a further experiment is MCF-7. Briefly: Cytotoxicity, MCF-7. To be noted: Homo sapiens, MCF7, read-out: Compound Cytotoxicity (IC50, nM).
The next experiment has as its system A-549. Put plainly: Cytotoxicity, A-549. To be noted: Homo sapiens, A549, read-out: Compound Cytotoxicity (IC50, nM).
Another experiment has as its system SKOV-3. Put plainly: Cytotoxicity, SKOV-3. The note with it: Homo sapiens, SK-OV-3, read-out: Compound Cytotoxicity (IC50, nM).
Another experiment deals with CCRF-CEM. Briefly: Cytotoxicity, CCRF-CEM. To be noted: Homo sapiens, read-out: Compound Cytotoxicity (IC50, nM).
The next experiment deals with HL-60/MX2. Put plainly: Cytotoxicity, HL-60/MX2. The note with it: Homo sapiens, HL60/MX2, read-out: Compound Cytotoxicity (IC50, nM).
The test system of the next experiment is CCRF-CEM/VBL. Briefly: Cytotoxicity, CCRF-CEM/VBL. To be noted: Homo sapiens, read-out: Compound Cytotoxicity (IC50, nM).
In a further experiment the test system is CCRF-CEM/taxol. Put plainly: Cytotoxicity, CCRF-CEM/taxol. The note with it: Homo sapiens, read-out: Compound Cytotoxicity (IC50, nM).
Another experiment has as its system CCRF-CEM/VP-16. Briefly: Cytotoxicity, CCRF-CEM/VP-16. The note with it: Homo sapiens, read-out: Compound Cytotoxicity (IC50, nM).
For the next experiment, the system named is SKBr3 cells. Briefly: Cytotoxicity against SKBr3 cells (CellTiter-Glo, 72 h). The note with it: Homo sapiens, SK-BR-3, 72 h, read-out: Cytotoxicity against SKBr3 Cells (IC50, nM). (Cellular ATP, detected with luciferase, serves as a proxy for viable cell number.)
Setting [1] is: filter binding assay, read-out: Hsp90 Binding (Kd).

Where two headings read alike, the source gives them in different places.

Method for SKBr3 cells: Cytotoxicity was determined with SKBr3 cells (ATCC HTB-30), a breast cancer cell line. […] Cells were plated into 96-well microtiter back plates at 4,000 cells per 50 μL per well, overnight. Serial 10× dilutions of test compound (10 μM to 0.1 μM) in cell culture media were prepared with a Biomek 2000 apparatus, using the protocols of deeper-1000 μL, media and deeper-1000 μL-dilution. 50 μL of each dilution was added to wells containing cells. Each compound or control (medium only) was tested in duplicate. For each assay, the wells contained a final volume of 100 μL (50 μL of cells and 50 μL of compound dilution). After incubating for 72 h, the plates were let stand at room temperature for 30 min. CellTiter-Glo Luminescent Reagent (Promega #G7573) (100 μL) was added to each well. The well contents were mixed for 5 min and the plates were kept at room temperature for another 30 min. Luminescence was recorded using a Wallac VICTOR^2 Multilabel Counter (PerkinElmer) and IC50 values were determined using Kaleidagraph software (Synergy Software).

On to `CO[C@H]1[C@@H](OC)C[C@H](C)CC2=C(N3CCC3)C(=O)C=C(NC(=O)/C(C)=C/C=C\[C@H](OC)[C@@H](OC(N)=O)/C(C)=C/[C@@H]1C)C2=O` [Compound I-a, 11-O-methyl-17-(1-azetidinyl)-17-demethoxygeldanamycin], for which, at Hsp90, binding was characterised by a dissociation constant (Kd) of 4000 nM. The half-inhibitory concentration (IC50) in the experiment on MCF-7 amounted to 63 nM; with A-549 it was 29 nM; in the experiment on SKOV-3, 110 nM; in the experiment with CCRF-CEM it was 420 nM; in the experiment on HL-60/MX2, 600 nM; in the experiment with CCRF-CEM/VBL, 2500 nM. The results for the IC50 in the experiment with CCRF-CEM/taxol, in the experiment on CCRF-CEM/VP-16 and in the experiment on SKBr3 cells were 2500 nM, 1400 nM and 24 nM, respectively.

Turning to `CO[C@H]1[C@@H](OC)C[C@H](C)CC2=C(NCCN(C)C)C(=O)C=C(NC(=O)/C(C)=C/C=C\[C@H](OC)[C@@H](OC(N)=O)/C(C)=C/[C@@H]1C)C2=O` [Compound I-b, 11-O-methyl-17-(2-dimethylaminoethyl)amino-17-demethoxy-geldanamycin], the Kd at Hsp90 (setting [1]) was 800 nM. Further, the IC50 with MCF-7 was 50 nM; with A-549 it was 23 nM; with SKOV-3 it was 43 nM; with CCRF-CEM, 58 nM; with HL-60/MX2, 62 nM; with CCRF-CEM/VBL, 960 nM. The IC50 with CCRF-CEM/taxol came to 390 nM; in the experiment on CCRF-CEM/VP-16 it was 65 nM; in the experiment on SKBr3 cells it was 12 nM.

Consider `CO[C@H]1[C@@H](OC)C[C@H](C)CC2=C(NCCF)C(=O)C=C(NC(=O)/C(C)=C/C=C\[C@H](OC)[C@@H](OC(N)=O)/C(C)=C/[C@@H]1C)C2=O` [Compound I-c, 11-O-methyl-17-(2-fluoroethyl)amino-17-demethoxygeldana-mycin], for which binding at Hsp90 was put at a Kd of 2300 nM. The IC50 in the experiment with MCF-7 was 58 nM; in the experiment with A-549, 67 nM; with SKOV-3, 460 nM; in the experiment with CCRF-CEM, 960 nM; with HL-60/MX2, 440 nM; in the experiment with CCRF-CEM/VBL, 2500 nM. Also, the half-maximal inhibitory concentration (IC50) with CCRF-CEM/taxol was found to be 2700 nM; with CCRF-CEM/VP-16, 2500 nM; with SKBr3 cells, 250 nM.

Compound `CO[C@H]1[C@@H](OC)C[C@H](C)CC2=C(NCCN3CC3)C(=O)C=C(NC(=O)/C(C)=C/C=C\[C@H](OC)[C@@H](OC(N)=O)/C(C)=C/[C@@H]1C)C2=O` [Compound I-d, 11-O-methyl-17-(2-(1-aziridinyl)ethyl)amino-17-demethoxygelda-namycin] displayed a Kd on Hsp90 of 2100 nM. Besides, the IC50 with SKBr3 cells was found to be 36 nM.

For `COC1=C2C[C@@H](C)C[C@H](OC)[C@H](OC)[C@@H](C)/C=C(\C)[C@H](OC(N)=O)[C@@H](OC)/C=C\C=C(/C)C(=O)NC(=CC1=O)C2=O` [Compound I-e, 11-O-methyl-geldanamycin], the Kd on Hsp90 (setting [1]) turned out to be 490 nM. The IC50 in the experiment on SKBr3 cells is 9.1 nM.

As to `CO[C@H]1[C@@H](OC)C[C@H](C)CC2=C(N)C(=O)C=C(NC(=O)/C(C)=C/C=C\[C@H](OC)[C@@H](OC(N)=O)/C(C)=C/[C@@H]1C)C2=O` [Compound I-f], the Kd at Hsp90 (setting [1]) was 320 nM. Besides, the IC50 with MCF-7 was 350 nM; in the experiment on A-549, 37 nM; in the experiment on SKOV-3, 200 nM; in the experiment with CCRF-CEM it was 250 nM; in the experiment with HL-60/MX2, 930 nM; in the experiment on CCRF-CEM/VBL, 2500 nM. Besides, the IC50 in the experiment on CCRF-CEM/taxol amounted to 850 nM; in the experiment on CCRF-CEM/VP-16 it was 530 nM; with SKBr3 cells it was 84 nM.

Turning to `C=CCNC1=C2C[C@@H](C)C[C@H](OC)[C@H](OC)[C@@H](C)/C=C(\C)[C@H](OC(N)=O)[C@@H](OC)/C=C\C=C(/C)C(=O)NC(=CC1=O)C2=O` [Compound I-g, 11-O-methyl-17-allylamino-17-demethoxygeldanamycin], the Kd on Hsp90 (setting [1]) stood at 2800 nM. Further, the IC50 with MCF-7 was 760 nM; in the experiment on A-549, 360 nM; in the experiment on SKOV-3, 1300 nM; in the experiment with CCRF-CEM, 2500 nM; in the experiment on HL-60/MX2, 3000 nM; in the experiment with CCRF-CEM/VBL it was over 5000 nM. For the same compound, the 50% inhibitory concentration (IC50) turned out to be 3500 nM in the experiment on CCRF-CEM/taxol, 4000 nM in the experiment on CCRF-CEM/VP-16 and 280 nM with SKBr3 cells.

On to `CO[C@H]1[C@@H](OC)C[C@H](C)CC2=C(NCCc3c[nH]cn3)C(=O)C=C(NC(=O)/C(C)=C/C=C\[C@H](OC)[C@@H](OC(N)=O)/C(C)=C/[C@@H]1C)C2=O` [Compound I-h, 11-O-methyl-17-(2-(4-imidazolyl)ethyl)amino-17-demethoxy-geldanamycin], for which, on Hsp90 (setting [1]), the Kd is 2000 nM. Besides, the IC50 is 160 nM in the experiment on MCF-7; 420 nM in the experiment on A-549; 320 nM in the experiment with SKOV-3; 510 nM with CCRF-CEM; 2500 nM in the experiment on HL-60/MX2; over 5000 nM with CCRF-CEM/VBL. The values for the IC50 in the experiment on CCRF-CEM/taxol, with CCRF-CEM/VP-16 and with SKBr3 cells were 3000 nM, 2500 nM and 60 nM, respectively.

As for `CO[C@H]1[C@@H](OC)C[C@H](C)CC2=C(NCCN3CCC3)C(=O)C=C(NC(=O)/C(C)=C/C=C\[C@H](OC)[C@@H](OC(N)=O)/C(C)=C/[C@@H]1C)C2=O` [Compound I-i, 11-O-methyl-17-(2-(1-azetidinyl)ethyl)amino 17-demethoxy-geldanamycin], the Kd on Hsp90 (setting [1]) was 960 nM. Moreover, the IC50 worked out at 51 nM in the experiment on MCF-7; 26 nM in the experiment on A-549; 65 nM in the experiment on SKOV-3; 85 nM with CCRF-CEM; 110 nM in the experiment with HL-60/MX2; 2500 nM with CCRF-CEM/VBL. Besides, the concentration for half-maximal inhibition (IC50) in the experiment on CCRF-CEM/taxol worked out at 510 nM; in the experiment with CCRF-CEM/VP-16, 140 nM; with SKBr3 cells, 130 nM.

As to `CO[C@H]1[C@@H](OC)C[C@H](C)CC2=C(NCCN3CCCC3)C(=O)C=C(NC(=O)/C(C)=C/C=C\[C@H](OC)[C@@H](OC(N)=O)/C(C)=C/[C@@H]1C)C2=O` [Compound I-j, 11-O-methyl-17-(2-(1-pyrrolidinyl)ethyl)amino-17-demethoxygeldanamycin], the Kd at Hsp90 (setting [1]) was found to be 960 nM. In addition, the IC50 was determined as 76 nM in the experiment with MCF-7; 62 nM in the experiment on A-549; 69 nM in the experiment on SKOV-3; 160 nM in the experiment on CCRF-CEM; 98 nM in the experiment with HL-60/MX2; 2500 nM with CCRF-CEM/VBL. Further, the results for the half-maximal inhibitory concentration (IC50) with CCRF-CEM/taxol, in the experiment on CCRF-CEM/VP-16 and in the experiment with SKBr3 cells were 520 nM, 170 nM and 160 nM, respectively.

Regarding `COC1=C2C[C@@H](C)C[C@H](OC)[C@H](O)[C@@H](C)/C=C(\C)[C@H](OC(N)=O)[C@@H](OC)/C=C\C=C(/C)C(=O)NC(=CC1=O)C2=O` [Geldanamycin], the IC50 in the experiment on SKBr3 cells was found to be 23 nM.
